# Measurements reported in PubChem BioAssay AID296 (DTP/NCI, 2004).
# Values joined by “and” are separate entries in the source; they are usually repeats but may differ in a detail not shown here. Equal values may be shown once. Records with an inconclusive call do not appear. Where a SMILES comes first, the peptide text is derived from it. Bridges are numbered along the chain shown (N, C = ends). Roman numbers before positions name the chains, in order. [ ]: non-standard residue; d: D form. The star is where a group is joined. Quinoxaline2carbonyl = O=C(c1cnc2ccccc2n1)*; NMeV = CN[CH](C(=O)O)C(C)C; NMeC = CN[CH](CS)C(=O)O
# Tested on: MX-1 breast xenograft, nude mice, tumor weight T/C
# Experiment: NCI In Vivo Anticancer Drug Screen. Data for tumor model Human Mammary Carcinoma MX-1 Xenograft (intrarenal inoculation) in NU/NU Swiss (nude) mice
# Settings: endpoint: mean tumor weight change, higher = larger tumour
# Summary of the method: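 Antitumour effect measured in vivo against vehicle controls, expressed as T/C.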
# [1] = dose: 600.0 mg/kg/injection, schedule: Q04DX003 (sc), vehicle: saline with Tween-80
smiles,measurement,setting,value
Cc1c(N)nc(C(CC(N)=O)NCC(N)C(N)=O)nc1C(=O)NC(C(=O)NC(C)C(O)C(C)C(=O)NC(C(=O)NCCc1nc(-c2nc(C(=O)NCCCNC(C)c3ccccc3)cs2)cs1)C(C)O)C(OC1OC(CO)C(O)C(O)C1OC1OC(CO)C(O)C(OC(N)=O)C1O)c1cnc[nH]1 (configuration not stated),T/C,"dose: 2.0 mg/kg/injection, schedule: Q01DX010 (sc), vehicle: saline",114 % of control
same,T/C,"dose: 8.0 mg/kg/injection, schedule: Q01DX010 (sc), vehicle: saline",92 % of control
same,T/C,"dose: 16.0 mg/kg/injection, schedule: Q01DX010 (sc), vehicle: saline",89 % of control
c1cc(-c2cc3ccc(C4=NCCN4)cc3[nH]2)ccc1C1=NCCN1,T/C,"dose: 25.0 mg/kg/injection, schedule: Q04DX003 (sc), vehicle: saline",66 % of control
same,T/C,"dose: 50.0 mg/kg/injection, schedule: Q04DX003 (sc), vehicle: saline",73 % of control
same,T/C,"dose: 100.0 mg/kg/injection, schedule: Q04DX003 (sc), vehicle: saline",50 % of control
O=C1OC(=O)[C@H]2[C@@H]1[C@H]1C=C[C@@H]2OC1=O,T/C,"dose: 25.0 mg/kg/injection, schedule: Q04DX003 (sc), vehicle: suspension in saline",83 % of control
same,T/C,"dose: 50.0 mg/kg/injection, schedule: Q04DX003 (sc), vehicle: suspension in saline",101 % of control
same,T/C,"dose: 100.0 mg/kg/injection, schedule: Q04DX003 (sc), vehicle: suspension in saline",89 % of control
same,T/C,"dose: 150.0 mg/kg/injection, schedule: Q04DX003 (sc), vehicle: suspension in saline",91 % of control
same,T/C,"dose: 200.0 mg/kg/injection, schedule: Q04DX003 (sc), vehicle: suspension in saline",90 % of control
same,T/C,"dose: 300.0 mg/kg/injection, schedule: Q04DX003 (sc), vehicle: suspension in saline",109 % of control
same,T/C,"dose: 600.0 mg/kg/injection, schedule: Q04DX003 (sc), vehicle: suspension in saline",89 % of control
C/C(=N\NC(N)=O)c1cccc(/C(C)=N/NC(N)=O)n1,T/C,[1],98 % of control
same,T/C,"dose: 1200.0 mg/kg/injection, schedule: Q04DX003 (sc), vehicle: saline with Tween-80",74 % of control
c1ccc(CN2CCOC2)cc1,T/C,"dose: 25.0 mg/kg/injection, schedule: Q01DX010 (sc), vehicle: saline",60 % of control
same,T/C,"dose: 50.0 mg/kg/injection, schedule: Q01DX010 (sc), vehicle: saline",78 % of control
same,T/C,"dose: 100.0 mg/kg/injection, schedule: Q01DX010 (sc), vehicle: saline",70 % of control
same,T/C,"dose: 200.0 mg/kg/injection, schedule: Q01DX010 (sc), vehicle: saline",47 % of control
"CC1NC(=O)C(NC(=O)c2cnc3ccccc3n2)COC(=O)C(C(C)C)N(C)C(=O)C2CSSCC(C(=O)N(C)C(C(C)C)C(=O)OCC(NC(=O)c3cnc4ccccc4n3)C(=O)NC(C)C(=O)N2C)N(C)C1=O (configuration not stated) (I: Quinoxaline2carbonyl-SA[NMeC][NMeV] / II: Quinoxaline2carbonyl-SA[NMeC][NMeV]; ester I:1-II:C, I:C-II:1; disulfide I:3-II:3; configuration not given here)",T/C,"dose: 100.0 micrograms/kg/injection, schedule: Q04DX003 (sc), vehicle: Klucel (hydroxypropylcellulose) (HPC)",63 % of control
same,T/C,"dose: 200.0 micrograms/kg/injection, schedule: Q04DX003 (sc), vehicle: Klucel (hydroxypropylcellulose) (HPC)",62 % of control
same,T/C,"dose: 400.0 micrograms/kg/injection, schedule: Q04DX003 (sc), vehicle: Klucel (hydroxypropylcellulose) (HPC)",73 % of control
same,T/C,"dose: 800.0 micrograms/kg/injection, schedule: Q04DX003 (sc), vehicle: Klucel (hydroxypropylcellulose) (HPC)",46 % of control
O=c1[nH]c(=O)n([C@H]2CCCO2)cc1F,T/C,"dose: 100.0 mg/kg/injection, schedule: Q01DX010 (sc), vehicle: Klucel (hydroxypropylcellulose) (HPC)",112 % of control
same,T/C,"dose: 200.0 mg/kg/injection, schedule: Q01DX010 (sc), vehicle: Klucel (hydroxypropylcellulose) (HPC)",97 % of control
same,T/C,"dose: 800.0 mg/kg/injection, schedule: Q01DX010 (sc), vehicle: Klucel (hydroxypropylcellulose) (HPC)",123 % of control
C=C1C(=O)OCC2C(C(=O)O)=CC3C(C)C(C)=CC123 (configuration not stated),T/C,"dose: 6.25 mg/kg/injection, schedule: Q01DX010 (sc), vehicle: Klucel (hydroxypropylcellulose) (HPC)",78 % of control
same,T/C,"dose: 12.5 mg/kg/injection, schedule: Q01DX010 (sc), vehicle: Klucel (hydroxypropylcellulose) (HPC)",113 % of control
ClCCCN1CCN(CCCCl)CC1,T/C,"dose: 75.0 mg/kg/injection, schedule: Q04DX003 (sc), vehicle: saline + alcohol",113 % of control
same,T/C,"dose: 150.0 mg/kg/injection, schedule: Q04DX003 (sc), vehicle: saline + alcohol",28 % of control
N#CC(=C1C=CC(=NO)C=C1)c1ccc(Cl)cc1,T/C,"dose: 150.0 mg/kg/injection, schedule: Q04DX003 (sc), vehicle: saline with Tween-80",89 % of control
same,T/C,"dose: 300.0 mg/kg/injection, schedule: Q04DX003 (sc), vehicle: saline with Tween-80",122 % of control
same,T/C,[1],156 % of control
OC(C1CO1)C(O)C1CO1 (configuration not stated),T/C,"dose: 1.0 mg/kg/injection, schedule: Q01DX010 (sc), vehicle: saline",5 % of control and 18 % of control
CN(C)N=Nc1ccccc1,T/C,"dose: 100.0 mg/kg/injection, schedule: Q04DX003 (sc), vehicle: Klucel (hydroxypropylcellulose) (HPC)",36 % of control
C[C@@H](CN1CC(=O)NC(=O)C1)N1CC(=O)NC(=O)C1,T/C,"dose: 100.0 mg/kg/injection, schedule: Q01DX010 (sc), vehicle: saline with Tween-80",63 % of control
same,T/C,"dose: 200.0 mg/kg/injection, schedule: Q01DX010 (sc), vehicle: saline with Tween-80",81 % of control
same,T/C,"dose: 400.0 mg/kg/injection, schedule: Q01DX010 (sc), vehicle: saline with Tween-80",39 % of control
C[Si](C)(C)OSc1ccccc1[N+](=O)[O-],T/C,"dose: 300.0 mg/kg/injection, schedule: Q04DX003 (sc), vehicle: Klucel (hydroxypropylcellulose) (HPC)",92 % of control
same,T/C,"dose: 600.0 mg/kg/injection, schedule: Q04DX003 (sc), vehicle: Klucel (hydroxypropylcellulose) (HPC)",95 % of control
same,T/C,"dose: 1200.0 mg/kg/injection, schedule: Q04DX003 (sc), vehicle: Klucel (hydroxypropylcellulose) (HPC)",80 % of control
same,T/C,"dose: 2400.0 mg/kg/injection, schedule: Q04DX003 (sc), vehicle: Klucel (hydroxypropylcellulose) (HPC)",107 % of control
